According to patent US20250296938A1, “Compounds that Interact with the Ras Superfamily for the Treatment of Cancers, Inflammatory Diseases, Rasopathies, and Fibrotic Disease” (SHY Therapeutics, LLC, priority 2018, published 2025):

Experiments:
[1] = system: TNF-α; test: Mouse TNF alpha quantification assay, LPS-stimulated RAW 264.7 macrophages; format: cell-based; details: RAW264.7, 10 μM, LPS (100 ng/ml) added concurrently, 5 hours, RAW 264.7, read-out: TNFα % Inhibition
Description: (§1) Cell lines: Abelson murine leukemia virus transformed macrophage cell line RAW 264.7 was purchased from ATCC and grown in complete DMEM-High Glucose medium supplemented with penicillin (100 U/mL), streptomycin (100 μg/mL), and 10% heat-inactivated FBS at 37° C. in a humidified incubator with 5% CO2.
(§2) Method: Cells were plated at 25000-40000 cells/well density in a 96-well plate. After a 3-hour incubation, macrophages were starved with DMEM plus 0.5% FBS overnight. The next day the small molecules to be tested were added to the cells in the final concentration of 30 μM (with 0.3% DMSO) 3 hours prior to LPS stimulation (100 ng/ml). After LPS stimulation cells were incubated at 37° C. for 16 h. Alternatively, compounds were also tested at 10 μM and LPS (100 ng/ml) was added concurrently and incubated 5 hours at 37° C. At the end of the incubation periods, culture medium was collected and production of LPS-induced TNF-α and IL-6 cytokine was measured using ELISA detection kits.
(§3) Sandwich ELISA: The ELISA Immunoassays Quantikine Mouse TNF-alpha (catalog number MTA00B) and IL6 (catalog number M6000B) were purchased from R&D Systems Inc., Minneapolis, MN. These 4.5 hours solid phase ELISAs were used to measure mouse TNF-α or IL-6 levels in macrophages culture supernatants. Assays were executed according to the manufacturer specifications.

[2] = system: IL-6; test: Mouse IL6 quantification assay, LPS-stimulated RAW 264.7 macrophages; format: cell-based; details: RAW264.7, 10 μM, LPS (100 ng/ml) added concurrently, 5 hours, RAW 264.7
Description: as §1, §2, §3

| Compound | inhibition at 10 µM [1] [%] | inhibition at 10 µM [2] [%] |
| --- | --- | --- |
| COc1c(O)nc(-c2ccccn2)nc1Oc1ccc(C(=O)N(C)C)cc1 [drawing 744] | 1 to 25 | 1 to 25 |
| COc1c(O)nc(-c2ccccn2)nc1Nc1ccccc1 [drawing 745] | 1 to 25 | 76 to 100 |
| CCn1cc(Nc2nc(-c3ccccn3)nc(O)c2OC)cn1 [drawing 746] | 1 to 25 | 76 to 100 |
| CCOc1cccc(Nc2nc(-c3ccccn3)nc(O)c2OC)c1 [drawing 747] | 1 to 25 | 51 to 75 |
| COc1cccc(-c2sc3nc(-c4nccn4C)nc(NC4CCC(OC)C4)c3c2-c2ccccc2)c1F (stereo not drawn) [drawing 748] | 76 to 100 | 76 to 100 |
| COc1cccc(-c2sc3nc(-c4nccn4C)nc(N[C@@H]4CC[C@H](OC)C4)c3c2-c2ccccc2)c1F [drawing 749] | 1 to 25 | 26 to 50 |
| COC1CCC(Nc2nc(-c3nccn3C)nc3sc(-c4cccc(O)c4F)c(-c4ccccc4)c23)C1 (stereo not drawn) [drawing 750] | 0 | 0 |
| COc1c(F)cccc1-c1sc2nc(-c3nccn3C)nc(NC3CCC(OC)C3)c2c1-c1ccccc1 (stereo not drawn) [drawing 751] | 0 | 1 to 25 |
| COc1c(F)cccc1-c1sc2nc(-c3nccn3C)nc(N[C@@H]3CC[C@H](OC)C3)c2c1-c1ccccc1 [drawing 752] | 0 | 0 |
| COC1CCC(Nc2nc(-c3nccn3C)nc3sc(-c4cccc5[nH]ncc45)c(-c4ccccc4)c23)C1 (stereo not drawn) [drawing 753] | 51 to 75 | 76 to 100 |
| CO[C@H]1CC[C@@H](Nc2nc(-c3nccn3C)nc3sc(-c4cccc5[nH]ncc45)c(-c4ccccc4)c23)C1 [drawing 754] | 76 to 100 | 76 to 100 |
| COC1CCN(c2nc(-c3nccn3C)nc3sc(-c4cccc(O)c4F)c(-c4ccccc4)c23)C1 (stereo not drawn) [drawing 755] | 1 to 25 | 26 to 50 |
| COc1cccc(-c2sc3nc(-c4nccn4C)nc(N[C@H]4C[C@@H](OC)C4)c3c2-c2ccccc2)c1F [drawing 756] | 51 to 75 | 76 to 100 |
| CO[C@H]1C[C@@H](Nc2nc(-c3nccn3C)nc3sc(-c4cnn(C)c4)c(-c4ccccc4)c23)C1 [drawing 757] | 1 to 25 | 51 to 75 |
| COc1cccc(-c2sc3nc(-c4nccn4C)nc(NC4CCC(OC)C4)c3c2C)c1F (stereo not drawn) [drawing 758] | 0 | 1 to 25 |
| COc1cccc(-c2sc3nc(-c4nccn4C)nc(N[C@@H]4CC[C@H](OC)C4)c3c2C)c1F [drawing 759] | 1 to 25 | 1 to 25 |
| COC1CCC(Nc2nc(-c3nccn3C)nc3sc(-c4cccc5[nH]ncc45)c(C)c23)C1 (stereo not drawn) [drawing 760] | 1 to 25 | 51 to 75 |
| COc1cccc(-c2sc3nc(-c4nc(C)cn4C)nc(N[C@@H]4CC[C@H](OC)C4)c3c2C)c1F [drawing 761] | 0 | 1 to 25 |
| CO[C@H]1CC[C@@H](Nc2nc(-c3nc(C)cn3C)nc3sc(-c4cccc5[nH]ncc45)c(C)c23)C1 [drawing 762] | 26 to 50 | 76 to 100 |
| COCCn1ccnc1-c1nc(O)c2scc(-c3ccc(OCC(C)C)nc3)c2n1 [drawing 763] | 1 to 25 | 26 to 50 |
| CC(C)COc1ccc(-c2csc3c(O)nc(-c4nccn4Cc4ccccn4)nc23)cn1 [drawing 764] | 1 to 25 | 76 to 100 |
| COc1cccc(Cn2ccnc2-c2nc(O)c3scc(-c4ccc(OCC(C)C)nc4)c3n2)c1 [drawing 765] | 1 to 25 | 76 to 100 |
| CO[C@H]1CC[C@@H](Nc2nc(-c3nccn3C)nc(C(=O)N3CCc4c(O)cccc4C3)c2C)C1 [drawing 766] | 1 to 25 | 0 |
| CO[C@H]1C[C@@H](Nc2nc(-c3ccccn3)nc3sccc23)C1 [drawing 767] | 1 to 25 | 1 to 25 |
